The values that follow come from patent US9199885B2, “Utilization of iron salts to stabilize and/or disinfect biosolids” (The Administrators of the Tulane Educational Fund, priority 2013, dated 2015).

For data set [1], the system named is return activated sludge (RAS) seed microorganisms. Put plainly: Aerobic respirometry: specific oxygen uptake rate (SOUR) of iron-dosed, heat-dried biosolids. The settings on record: for time until SOUR reached below the stable criteria requirement: 1.5% ferrate as iron by TS. The protocol:
Thickened sewage sludge was poured into ster[…] & Bird B-Ker polycarbonate jars with a sampling port for flash mixing and flocculation in amounts of 1 L to 2 L. The ferric chloride/ferrate dose was delivered by syringe to the jar test beakers. The ferric chloride dose was calculated by obtaining the total solids content of the sludge sample first and taking 2% of the result. The ferrate dose was calculated after computing the final synthesized concentration of ferrate in buffer solution. Both the ferrate and ferric chloride doses were based on mass rather than volume. The ferrate solution strength was calculated based on mass instead of volume to minimize errors in the dose calculations; these errors are associated with off-gases from the ferrate solution changing the volume of ferrate within the syringe. Of the six jars, one jar of raw sludge served as the control and five jars were used to test various dosages. The ferric chloride was added first while the sludge samples were mixed at a speed of 300 rpm; after thorough mixing (about 10 minutes), the ferrate was added and the mixture was mixed at 300 rpm for about 10 minutes until thoroughly mixed. Well-mixed sludge was then transferred into centrifuge tubes and centrifuged, and then the settled solids were collected and spread on a baking pan and heat dried for about 30 minutes. Batch respirometer tests were conducted by dosing microbial culture with an amount of organic chemical or wastewater followed by monitoring the reactions through measurement of oxygen uptake in aerobic tests or gas production in anoxic and methanogenic tests. Batch tests are transient, non-steady-state reactions in which both substrate and biomass concentrations change throughout the biodegradation reaction. The procedures generally involve the following steps. A sample of wastewater or solution of test chemicals is placed in each of a number of respirometer vessels. Nutrients and trace minerals are added in amounts sufficient to support biological growth and a buffer is added to maintain the pH within an acceptable range. A seed culture is added to provide microorganisms that can degrade the organic constituents in the test samples. A caustic scrubber is suspended within the headspace of the reaction vessel to absorb carbon dioxide (only in instruments using headspace oxygen transfer), and chemicals are added to inhibit nitrification in cases where only aerobic carbonaceous oxidation reactions are to be monitored. The reaction vessels are attached to a device suitable for measuring oxygen uptake or gas production, and oxygen uptake or gas production is measured over time periods ranging from a few minutes to 90 days, depending on the test objectives. The aerobic conditions of respirometry assessments were designed to simulate the scenario that the treated biosolids were fully seeded with an unlimited oxygen supply. The anaerobic conditions mimicked fully seeded biosolids without oxygen. The return activated sludge from the New Orleans' POTW was used as seed for its already acclimated microorganisms. For the same reasons, the effluent was selected as the dilution water to increased moisture content. After the heat drying process, the product was tested for total solids contents. […] The system was then sealed and set up in a 20° C. water bath for real time monitoring on oxygen uptake for 96 hours. pH and ORP values were assessed at the beginning and the end of the tests. The sludge was thickened to achieve a 5% solids content level. After the addition of ferric chloride, ferrate or both followed by centrifugation, the sludge cake was placed in an oven at 80° C. for 30 minutes to mimic the heat drying process. The dried sludge was then tested for stability by adding 98%-99% of moisture content. There were three exogenous variables: buffer, feed and seed. The buffer was 1.5M KH2PO4 at pH 7.0. […]

Data set [2] in a line: ORP of treated heat-dried biosolids. It is filed as physicochemical. The note with it: post treatment. The protocol: After the heat drying process, the product was tested for total solids contents. Based on the results, a 2% solution of said product in effluent was made and poured into 600 mL narrow neck glass bottles, along with a seeding of 3000 mg/L for each bottle. The system was then sealed and set up in a 20° C. water bath for real time monitoring on oxygen uptake for 96 hours. pH and ORP values were assessed at the beginning and the end of the tests.

Data set [3] relates to biomass. The note with it: endogenous respiration, no added oxygen or substrate; cited from earlier work.

As to `[Cl][Fe]([Cl])[Cl]` [ferric chloride], the “stability of heat-dried biosolids” value is listed as “not stable” in data set [1] (1.4% to 1.5% ferric chloride, seeded); “stable” in data set [1] (ferric chloride-treated, seed not added); “not stable” in data set [1] (with addition of seed, ferric chloride doses less than 2.3%). In addition, the SOUR in data set [1] (1.4% to 1.5% ferric chloride, seeded, for 5 to 10 hours) is given as greater than 1.5 mg O2/h/g TS. Further, the “time heat-dried biosolids observed to be stable” value in data set [1] (dose larger than 2.3% ferric chloride, seeded) is “at least 2 days”. Further, the “ORP levels in the biosolids” value in data set [2] is reported as “around 0.1 V”. In addition, in data set [3], the “stimulation of biomass during dosing” value is on record as “did not stimulate the biomass”.

Consider `[O]=[Fe](=[O])([O-])[O-]` [ferrate], for which the “stabilization (SOUR)” value is recorded as “no stabilization” in data set [1] (1.3% ferrate as the iron dose, buffer, seed and feed in respirometer); “stable biosolids” in data set [1] (ferrate dosages 1.2% to 4.9%, not neutralized with buffer (pH higher than 10), acetate and seed added). In addition, the “time until SOUR reached below the stable criteria requirement” value in data set [1] (moisture content 98%) was 5 h; in data set [1] (moisture content 99%), 9 h. Besides, the “ORP levels in the biosolids” value in data set [2] is “around 0.1 V”.

Turning to `O=S(=O)([O-])[O-].[Fe+2]` [ferrous sulphate], the “stimulation of biomass during dosing” value in data set [3] is “did not stimulate the biomass”.
